The term IC50 denotes the concentration that gives 50% inhibition.

These results are taken from patent publication US10233180B2, “Substituted nitrogen-containing heterocyclic derivatives, pharmaceutical compositions comprising the same and applications of antitumor thereof” (ZHEJIANG UNIVERSITY, priority 2014, dated 2019).

For one assay, the target named is T1, Akt1 (Homo sapiens, UniProt P31749).
T1 construct: purchased 32-021
Briefly: AKT1/PKBα KinEASE FP Fluorescein Green Assay (fluorescence polarization kinase kit). The assay is classed as biochemical. To be noted: 1 h reaction, read-out: Inhibitory activities against Akt1 (IC50). The procedure, abridged:
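FP competition kinase assay: compounds (50 μM stock) with STK Substrate 3 and ATP, 1 h reaction at room temperature; stopped with stop/antibody mix, 4 h at room temperature, then polarization read. Inhibition derived from polarization values; IC50 calculated; triplicate wells.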
In general terms: In fluorescence polarisation assays a small probe gives low polarisation when free and higher when bound to something large.

Assay [1] has as its system Human ovarian cancer cell strain OVCAR-8. The assay is described as follows: MTT assay, inhibition of tumor cell growth in vitro, 72 h. The assay is classed as cell-based. The note with it: Homo sapiens, OVCAR-8, MTT, read-out: Antitumor proliferative activities of tumor cell (IC50, μM) OVCAR-8. The procedure, abridged: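 OVCAR8 cells in RPMI 1640 plus FBS were seeded at 4000 cells/well and exposed for 72 h at 37 °C to compound at 50, 10, 2, 0.4 and 0.08 μM final, with 1% DMSO as blank. Inhibition was calculated from OD relative to control, and IC50 was derived by the Bliss method.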

In assay [2] the test system is human colon cancer cell strain HCT-116. Described as above. The assay is classed as cell-based. The note with it: Homo sapiens, HCT-116, MTT, read-out: Antitumor proliferative activities of tumor cell (IC50, μM) HCT-116 (converted). In a few lines:
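Cells in RPMI 1640 with FBS, 4000 cells/well, exposed 72 h at 37 °C, 5% CO2 to final 50, 10, 2, 0.4 and 0.08 μM; 1% DMSO blank. MTT OD gives % inhibition versus control; IC50 derived by Bliss method.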

T1 sequence (P31749 whole entry): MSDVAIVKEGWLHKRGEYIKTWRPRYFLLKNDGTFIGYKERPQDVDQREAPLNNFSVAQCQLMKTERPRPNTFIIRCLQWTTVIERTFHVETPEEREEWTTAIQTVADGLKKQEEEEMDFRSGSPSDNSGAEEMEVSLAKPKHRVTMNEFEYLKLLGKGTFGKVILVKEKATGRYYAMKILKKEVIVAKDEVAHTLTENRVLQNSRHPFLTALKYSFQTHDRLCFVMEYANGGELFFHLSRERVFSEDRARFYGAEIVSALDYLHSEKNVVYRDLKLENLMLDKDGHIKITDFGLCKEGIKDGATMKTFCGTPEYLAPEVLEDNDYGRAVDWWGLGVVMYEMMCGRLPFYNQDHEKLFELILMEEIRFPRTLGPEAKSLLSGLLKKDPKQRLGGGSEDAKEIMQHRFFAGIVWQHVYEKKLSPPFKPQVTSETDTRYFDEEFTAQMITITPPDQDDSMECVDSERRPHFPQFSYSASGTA

With `Cn1ncc(Cl)c1-c1ccc(C(=O)N[C@@H]2CNCC[C@H]2c2ccc(Cl)cc2)cc1C#N` [Compound 76, 4-(4-chloro-1-methyl-1H-pyrazol-5-yl)-N-((3S,4S)-4-(4-chlorophenyl)piperidin-3-yl)-3-cyanobenzamide], the IC50 at Akt1 is 0.021 µM; in assay [1], 2.54 µM; in assay [2], 1.56 µM.

Regarding `Cn1nccc1-c1ccc(C(=O)N[C@@H]2CNCC[C@H]2c2ccc(F)c(F)c2)cc1` [Compound 77, N-((3S,4S)-4-(3,4-difluorophenyl)piperidin-3-yl)-4-(1-methyl-1H-pyrazol-5-yl)benzamide], the IC50 at Akt1 was 0.018 µM; in assay [1], 3.68 µM; in assay [2] it was 2.81 µM.

With `Cn1ncc(Cl)c1-c1ccc(C(=O)N[C@@H]2CNCC[C@H]2c2ccc(F)c(F)c2)cc1Cl` [Compound 78, 3-chloro-4-(4-chloro-1-methyl-1H-pyrazol-5-yl)-N-((3S,4S)-4-(3,4-difluorophenyl)piperidin-3-yl)benzamide], the IC50 is 0.006 µM at Akt1, 0.76 µM in assay [1] and 2.03 µM in assay [2].

`Cn1ncc(Cl)c1-c1ccc(C(=O)N[C@@H]2CNCC[C@H]2c2cccc(F)c2)cc1N` [Compound 79, 3-amido-4-(4-chloro-1-methyl-1H-pyrazol-5-yl)-N-((3S,4S)-4-(3-fluorophenyl)piperidin-3-yl)benzamide]: the half-inhibitory concentration (IC50) on Akt1 was 0.019 µM; in assay [1] it was 3.77 µM; in assay [2], 4.08 µM.

Regarding `Cn1ncc(Cl)c1-c1ccc(C(=O)N[C@@H]2CNCC[C@H]2c2ccc(Cl)cc2)c(C(F)(F)F)c1` [Compound 80, 4-(4-chloro-1-methyl-1H-pyrazol-5-yl)-N-((3S,4S)-4-(4-chlorophenyl)piperidin-3-yl)-2-(trifluoromethyl)benzamide], the IC50 was 0.001 µM on Akt1, 0.94 µM in assay [1] and 2.51 µM in assay [2].

Consider `Cn1ncc(Br)c1-c1ccc(C(=O)N[C@@H]2CNCC[C@H]2c2cc(F)c(F)c(F)c2)cc1` [Compound 81, 4-(4-bromo-1-methyl-1H-pyrazol-5-yl)-N-((3S,4S)-4-(3,4,5-trifluorophenyl)piperidin-3-yl)benzamide], for which the IC50 is 0.018 µM on Akt1, 3.57 µM in assay [1] and 1.1 µM in assay [2].

Take `Cn1ncc(Cl)c1-c1ccc(C(=O)N[C@@H]2CNCC[C@H]2c2ccc(F)c(F)c2)cc1F` [Compound 82, 4-(4-chloro-1-methyl-1H-pyrazol-5-yl)-N-((3S,4S)-4-(3,4-difluorophenyl)piperidin-3-yl)-3-fluorobenzamide]: the half-maximal inhibitory concentration (IC50) is 0.016 µM on Akt1, 1.15 µM in assay [1] and 1.56 µM in assay [2].

With `COc1cc(C(=O)N[C@@H]2CNCC[C@H]2c2cccc(F)c2)ccc1-c1c(Cl)cnn1C` [Compound 83, 4-(4-chloro-1-methyl-1H-pyrazol-5-yl)-N-((3S,4S)-4-(3-fluorophenyl)piperidin-3-yl)-3-methoxybenzamide], the 50% inhibitory concentration (IC50) at Akt1 was 0.01 µM; in assay [1], 1.32 µM; in assay [2], 4.09 µM.

Turning to `Cn1ncc(Cl)c1-c1ccc(C(=O)N[C@@H]2CNCC[C@H]2c2ccc(Cl)c(C(F)(F)F)c2)c(F)c1` [Compound 84, 4-(4-chloro-1-methyl-1H-pyrazol-5-yl)-N-((3S,4S)-4-(4-chloro-3-(trifluoromethyl)phenyl)piperidin-3-yl)-2-fluorobenzamide], the IC50 is 0.009 µM at Akt1, 4.44 µM in assay [1] and 2.1 µM in assay [2].

Take `Cn1ncc(Cl)c1-c1ccc(C(=O)N[C@@H]2CNCC[C@H]2c2cccc(F)c2)cc1OC(F)(F)F` [Compound 85, 4-(4-chloro-1-methyl-1H-pyrazol-5-yl)-N-((3S,4S)-4-(3-fluorophenyl)piperidin-3-yl)-3-(trifluoromethoxy)benzamide]: the half-inhibitory concentration (IC50) on Akt1 is 0.021 µM; in assay [1], 3.07 µM; in assay [2], 5.56 µM.
